Measured values reported in the supplement of paper PMC10307832.

What was measured:
Assay in all cases: relative viability (nuclei count vs DMSO), 5 days (fraction); higher = more cells survive
Metformin = compound: CN(C)C(=N)NC(=N)N [Metformin]
Outline: (§1)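 Cells of lung cancer lines were placed in 1536-well plates and kept overnight at 37 °C. Pinning then delivered five library-drug doses (not always all listed), spaced by √10, onto plates anchored with vehicle, and the cells were left 5 days without changing medium. One step fixed, permeabilised and stained them with Hoechst, and MetaXpress counted nuclei in 4× images. Viability, as a median over plates, is treated-well nuclei divided by vehicle-well nuclei, with acceptance only at control CV below 25% and at least one doubling.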

Apatinib = compound: N#CC1(c2ccc(NC(=O)c3cccnc3NCc3ccncc3)cc2)CCCC1 [Apatinib]
Outline: as §1

Metformin + Alpelisib = compound: CN(C)C(=N)NC(=N)N [Metformin] + Cc1nc(NC(=O)N2CCC[C@H]2C(N)=O)sc1-c1ccnc(C(C)(C)C(F)(F)F)c1 [Alpelisib] (partner 2 µM)
Outline: (§2)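 After 5 days of treatment, lung cancer cells in 1536-well plates were fixed and stained in a single step (final 0.05% Triton X-100, 1% formaldehyde, 1 ug/ml Hoechst) and their nuclei counted on 4× images. Treatment had been applied by pin tool the day after seeding as one drug alone or as a fixed anchor-drug dose with five library-drug doses (not always all listed) in √10 steps. Relative viability is the nuclei count of treated wells divided by that of vehicle wells, and values are medians of duplicate plates.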

Apatinib + Bortezomib = compound: N#CC1(c2ccc(NC(=O)c3cccnc3NCc3ccncc3)cc2)CCCC1 [Apatinib] + CC(C)C[C@H](NC(=O)[C@H](Cc1ccccc1)NC(=O)c1cnccn1)B(O)O [Bortezomib] (partner 0.002 µM)
Outline: as §2

Cell Line	relative viability (Metformin; 10 µM)	relative viability (Metformin; 31.62 µM)	relative viability (Metformin; 100 µM)	relative viability (Metformin; 316.23 µM)	relative viability (Metformin; 1000 µM)	relative viability (Apatinib; 0.08 µM)	relative viability (Apatinib; 0.253 µM)	relative viability (Apatinib; 0.8 µM)	relative viability (Apatinib; 2.53 µM)	relative viability (Apatinib; 8 µM)	relative viability (Metformin + Alpelisib; first compound 10 µM)	relative viability (Metformin + Alpelisib; first compound 31.62 µM)	relative viability (Metformin + Alpelisib; first compound 100 µM)	relative viability (Metformin + Alpelisib; first compound 316.23 µM)	relative viability (Metformin + Alpelisib; first compound 1000 µM)	relative viability (Apatinib + Bortezomib; first compound 0.08 µM)	relative viability (Apatinib + Bortezomib; first compound 0.253 µM)	relative viability (Apatinib + Bortezomib; first compound 0.8 µM)	relative viability (Apatinib + Bortezomib; first compound 2.53 µM)	relative viability (Apatinib + Bortezomib; first compound 8 µM)
NCI-H1299	1.07	1.04	1.07	1.01	1.03	1.04	1	1	0.931	0.917	0.991	0.998	1.05	0.994	0.933	1.06	1.02	0.987	1.03	0.908
NCI-H647	0.978	1.05	1.05	0.813	0.939	1.05	1.07	0.993	0.837	0.852	1.07	1.05	1.08	1.15	1.21	1.27	1.33	1.01	0.736	0.823
LXF-289	0.872	0.927	0.95	0.946	0.99	0.989	0.976	0.981	0.943	0.951	0.909	0.97	0.963	0.943	1.01	1.02	0.983	0.984	0.936	0.96
PC-3 [JPC-3]	0.898	0.986	1.01	0.987	1.02	1.06	0.983	0.915	0.955	0.985	0.92	0.971	1.03	0.949	0.965	0.832	0.773	0.713	0.716	0.813
UMC-11	0.961	1.02	1.06	0.96	0.992	1.06	0.866	0.942	0.899	0.885	1.06	0.992	1.03	0.988	0.971	1.01	0.728	0.722	0.623	0.67
H3255	0.839	1.09	0.967	0.909	0.841	0.979	0.935	0.964	0.859	0.916	0.697	0.783	0.712	0.339	0.486	0.729	0.791	0.657	0.612	0.723
NCI-H1651	1.08	1.17	1.12	1.11	1.11	0.988	0.984	0.986	0.939	0.871	1.21	1.13	1.14	1.08	1.15	0.799	0.955	0.922	0.912	0.861
NCI-H1355	0.838	0.953	0.963	0.992	1.05	0.993	0.962	0.956	0.9	0.885	0.746	0.787	0.853	0.857	0.842	1.2	1.16	1.16	1.14	1.08
HOP-62	0.856	1.02	1.02	0.917	1.03	0.964	0.924	0.985	0.859	0.922	0.828	0.77	0.777	0.928	0.934	1.06		0.62	0.672	0.738
HCC-366	0.926	1.06	1.02	0.964	1.03	1.03	1	1.02	0.97	0.988	0.43	0.545	0.472	0.452	0.535	1.16	1.1	0.948	0.926	1.09
BEN	1.26	1.4	1.29	1.17	1.47	1	0.92	1.02	0.821	0.807	1.16	1.47	1.43	1.03	1.24	0.688	0.868	0.876	0.458	0.871
NCI-H520	1.08	0.928	1.18	0.889	1.03	1.11	0.945	1.01	0.813	0.81	0.764	0.855	0.948	0.665	0.86	0.83	0.492	0.451	0.585	0.447
NCI-H2023	0.782	1.13	0.921	0.853	0.769	1.01	0.94	0.974	0.881	0.883		0.558	0.627		0.506	1.02	1.09	1.02	0.858	0.856
NCI-H838	1.05	1.07	1.01	0.987	1.04	1.08	1.06	0.97	0.936	0.941	1.04	0.969	0.969	0.988	1.02	0.931	0.963	0.57	0.887	0.712
SW 1573	1.13	1.1	1.01	0.843	0.864	1.08	1.12	0.941	0.839	0.872	0.853	0.82	0.795	0.8	0.797	1.15	1.04	0.982	1.05	0.944
HCC-15		1.08	1	0.926	1.05	1.1	0.978	0.971	0.909	0.841	0.921	1.07	1.03	0.659	0.919	1.09	1.03	0.972	0.88	0.992
NCI-H1666	0.938	1.11	0.971	1.07	1.09	1.01	0.958	0.969	0.997	0.986	0.943	1.05	1.12	0.981	1.29	0.829	1.02	0.824	0.785	0.825
A-427	1.05	1.02	0.985	1.01	1.05	1.09	0.967	0.965	0.926	0.906	1.07	1.14	1.02	1.05	1.03	1.08	0.955	1.01	0.886	0.945
LU99A	0.946	0.894	0.785	0.792	0.915	0.923	1.11	0.95	0.925	0.83	0.404	0.4	0.379	0.382	0.44	1.21	1.22	1.2	0.943	0.976
NCI-H727	1.04	1.06	1.13	0.688	1.16	1.08	0.879	0.937	0.77	0.843	0.657	0.749	0.469	0.647	0.533	0.684	0.706	0.62	0.599	0.716
EPLC-272H	0.9	1.16	0.923	0.935	1.09	1.01	1.02	0.914	0.774	0.691	1.15	1.04	1.1	1.04	1.13	1.04	0.905	0.806	0.738	0.666
